Data taken from patent US20060292099A1, “Treatment of eye disorders with sirtuin modulators” (priority 2005, published 2006).
Values joined by “and” are separate entries in the source; they are usually repeats but may differ in a detail not shown here. Equal values may be shown once. Read-outs that look alike come from different tables or passages of the source.

Legend:
[1] = tested on: retinal ganglion cells; details: animals, recent study (glaucoma background); cited from earlier work
[2] = tested on: EAE mice with optic neuritis; experiment: Clinical EAE score and incidence of optic neuritis, resveratrol intravitreal; type: in vivo, SJL/J mice; details: for Peak EAE Score For Individual Mice: five point scale
From the text: (§1) The experimental design is diagrammed in FIG. 21.
Mice were scored daily for clinical EAE on a five point scale: no disease=0; partial tail paralysis=0.5; tail paralysis or waddling gait=1.0; partial tail paralysis and waddling gait=1.5; tail paralysis and waddling gait=2.0; partial limb paralysis=2.5; paralysis of one limb=3.0; paralysis of one limb and partial paralysis of another=3.5; paralysis of two limbs=4.0; moribund state=4.5; death=5.0.
(§2) Retinas were diessected and whole-mounted for fluorescent microscopy. […] Optic nerves were dissected and processed for histology. […] RGCs were compared between PBS-treated and resveratrol-treated eyes with optic neuritis to determine whether resveratrol prevents loss of neurons.

[3] = tested on: retinal ganglion cells (RGCs); experiment: Retinal ganglion cell (RGC) counts in EAE optic neuritis model, resveratrol intravitreal; type: in vivo, SJL/J mice; details: for RGC numbers: EAE eyes with optic neuritis, 0.8 μl intravitreal days 0, 3, 7, 11, day 14
Experimental: as §1
Three test doses were diluted:
as §2

[4] = Measured resveratrol concentration in Captisol solutions and reconstitution of lyophilized product; type: physicochemical
Experimental: Lyophilized vials containing 10% Captisol control vehicle were also manufactured. […] Lyophilized vials containing 40% Captisol control vehicle were also manufactured.
The filtered solutions were dispensed into vials (1.0 mL solution into 3 mL vial, Wheaton #223684), and lyophilized. At the end of the lyophilization cycle, the vials were sealed under vacuum and a cap crimped over the septa.
The lyophilized resveratrol product was an off-white cake. The material reconstituted in ˜20 seconds after the addition of 1.0 mL water. […] The lyophilized control vehicle product was a white cake. The material reconstituted in ˜20 seconds after the addition of 1.0 mL water. The reconstituted control vehicle was clear, with no visible particulates, and having a pH of 5.82.
The solution was stirred for 35 minutes, followed by sonication for 1 hour. The solution was stirred for an additional 50 minutes, followed by sonication for an additional hour. At this point, solid material was still present in the sample. An aliquot was removed for analysis. […] Because the solution appeared cloudy at this time, three portions were separated to try alternate mixing methods. Approximately 200 mL was transferred to a 500 mL volumetric flask and was sonicated for 45 min, approximately 300 mL was vigorously mixed with an overhead mixer for 90 minutes, and approximately 100 mL was homogenized for 25 minutes. None of the three portions appeared clear. […] The portions were combined and were stirred at ambient temperature overnight protected from light. The following morning, using an aseptic technique in the laminar flow hood, the solution was sterile filtered via a Nalgene 90 mm filter unit (Cat# 167-0020; […]).

[5] = tested on: retinal ganglion cells (RGCs)
Experimental: (§3) Study outline: The neuroprotective effects of nicotinamide riboside were examined in EAE mice with optic neuritis. […] To induce EAE, mice were immunized several days later with 300 μg PLP emulsified in complete Freund's adjuvant (CFA), and control mice (without EAE) were mock-immunized with phosphate buffered saline (PBS) in CFA. All mice received 200 ng intraperitoneal pertussis toxin (PT) on the day of immunization (day 0) and again on day 2.
(§4) Eyes were treated with nicotinamide riboside by intravitreal (ivt) injections with a volume of 0.8 μl/injection of a stock solution of either 0.1 M or 0.4 M nicotinamide riboside in PBS (Groups 2, 4 and 5). […] Treament with nicotinamide riboside, as well as PBS control injections, were given ivt on days 0, 4, 7 and 11. Mice were scored daily for clinical EAE, and were sacrificed on day 14 by overdose with ketamine and xylazine.
(§5) Retinas were dissected and whole-mounted for fluorescent microscopy. RGC numbers were quantified by counting FG-labeled cells in 12 standardized fields in each retina. Optic nerves were dissected and processed for histology. Cut sections stained by H & E were evaluated for the presence of inflammatory cells to determine acute optic neuritis. RGCs were compared between PBS-treated and nicotinamide riboside-treated eyes with optic neuritis to determine whether nicotinamide riboside prevents loss of neurons.

[6] = tested on: EAE mice with optic neuritis; experiment: Incidence of optic neuritis (inflammatory cell infiltration of optic nerve) and clinical EAE, nicotinamide riboside; type: in vivo, SJL/J mice
Experimental: as §3, §4, §5

[7] = optic nerve, acute optic neuritis in EAE

## N=C(N)NN [aminoguanidine]
[1]
  loss of retinal ganglion cells: reduction in the loss of retinal ganglion cells

## Oc1ccc(/C=C/c2cc(O)cc(O)c2)cc1 [resveratrol, 3,5,4′-Trihydroxy-trans-stilbene]
[2]; Control (non-EAE) mice, 38 μM resveratrol intravitreal
  Peak EAE Score For Individual Mice: 0
[2]; Control (non-EAE) mice, 600 μM resveratrol intravitreal
  Peak EAE Score For Individual Mice: 0
[2]; EAE mice, 38 μM resveratrol intravitreal
  Peak EAE Score For Individual Mice: 1.5 and 3 (2×) and 0 and 5 and 2.5 and 1 (2×)
[2]; EAE mice, 77 μM resveratrol intravitreal
  Peak EAE Score For Individual Mice: 2 (4×) and 2.5 (3×) and 0 and 3.5 and 5 and 1.5
[2]; EAE mice, 600 μM resveratrol intravitreal
  Peak EAE Score For Individual Mice: 2.5 and 2 (2×) and 5 and 4.5 and 1.5 and 0.5
[2]; [7]
  Inflammatory cell infiltration: does not prevent
[2]; resveratrol treated mice vs controls
  Incidence of optic neuritis and clinical EAE vs controls: did not differ
[3]; 38 μM resveratrol
  RGC numbers: 452±136 RGCs
[3]; 77 μM resveratrol
  RGC numbers: 585±198 RGCs
[3]; 600 μM resveratrol
  RGC numbers: 644±148 RGCs
[3]; mouse, in vivo
  Toxicity to RGCs: not toxic
[3]; non-EAE eyes treated with resveratrol vs control eyes
  RGC numbers vs control eyes: no difference
[4]; 10% Captisol lyophilisate reconstituted with 1.0 mL water, pH 5.91
  concentration of resveratrol in solution: 14.4 mM
[4]; 10% Captisol, after 0.20 μm filtration, pH 4.83
  concentration of resveratrol in solution: 14.9 mM
[4]; 10% Captisol, mixed 1 hour at ambient temperature, initial solution, pH 5.02 (target 20 mM)
  concentration of resveratrol in solution: 15.4 mM
[4]; 40% Captisol, after stirring and sonication, solid still present, pH 4.76 (target 175 mM)
  concentration of resveratrol in solution (HPLC): 55 mM
[4]; 40% Captisol, portion homogenized for 25 minutes
  concentration of resveratrol in solution: 74 mM
[4]; 40% Captisol, stirred overnight at ambient temperature, sterile filtered
  concentration of resveratrol in solution: 168 mM

## NC(=O)c1ccc[n+]([C@@H]2O[C@H](CO)[C@@H](O)[C@H]2O)c1 [nicotinamide riboside]
[5]; mouse, in vivo
  Toxicity to RGCs: not toxic
[5]; non-EAE eyes treated with nicotinamide riboside (Group 2) vs control eyes (Group 1)
  RGC numbers vs control eyes: no difference
[6]; nicotinamide riboside treated mice vs controls
  Incidence of optic neuritis and clinical EAE vs controls: did not differ
[6]; [7]
  Inflammatory cell infiltration: does not prevent
